Results: patent US5731452A, “7-thiaprostaglandins and method of production thereof” (Teijin Limited, priority 1994, dated 1998)
One block for each compound: values may come before it.

How the values were obtained:
[1] = test system: cell migration induced by MCP-1 in human blood monocytes; experiment: Activity for inhibiting cell migration induced by MCP-1 (human blood monocytes); type: cell-based; conditions: Monocyte, 2 h, 20 ng/ml recombinant human MCP-1, 37° C., two hours
Rat Carotid Artery = experiment: Suppressing thickening of intima after trauma to rat carotid artery endothelium by balloon catheter; type: in vivo, Wistar rat; conditions: for thickening of the neointima of the carotid artery (in words) / Suppression rate (intima thickening): 3.2 μg/rat/hr s.c.; for Intima (area) / Media (area) / Intima/Media: 3.2 μg/rat/hr s.c. miniosmotic pump, day 14, average ± standard error; for Intima (area): 3 days before to 11 days after surgery; for Intima (area) / Intima/Media: * p < 0.05 vs control; for Suppression rate (intima thickening): (1-T/C)×100 of Intima/Media
Experimental: The test was performed in the following manner in accordance with the method of Clowes et al. (Lab. Invest., 49, 206, 1983). Male Wistar rats of a body weight of 300 to 350 g were used. The neck of each rat was opened under anesthesia by sodium pentobarbitol, then a balloon catheter (Fogarty, 2F) was inserted from the right external carotid artery until the starting portion of the common carotid artery. The balloon was expanded by saline to an extent causing a light resistance, then the catheter was pulled out in that state up to the carotid artery to give trauma to the intima. This procedure was repeated three times, then the catheter was withdrawn and the external carotid artery was ligated. After 14 days, the chest was opened under anesthesia by diethyl ether, refluxing and immobilization were performed from the aorti arch by a Karnoa solution (methanol:chloroform:acetic acid=6:3:1), then the right common carotid artery was excised and immobilized by neutral formalin solution. The immobilized carotid artery was dyed by Elastica van Gieson dye, then the areas of the media and thickened portion of the intima were measured by an image resolution device (LUZEX2D).
(§1) The test compound began to be administered subcutaneously at a rate of 3.2 μg/rat/hr using a miniosmotic pump buried in the back of the rat from three days before the surgery and was continued until 11 days after the surgery. The activity of the test compound in suppressing intima thickening was found from the following formula.

Rabbit Carotid Artery = experiment: Suppressing thickening of intima after trauma to rabbit carotid artery endothelium by balloon catheter; type: in vivo, New Zealand white rabbit
Experimental: The test was performed in the following manner in accordance with the method of Clowes et al. (Lab. Invest., 49, 206, 1983). Use was made of New Zealand white rabbits (male) of approximately 4 kg body weight. The neck portion of each rabbit was opened under anesthesia by sodium pentobarbitol, then a balloon catheter (Fogarty, 3F) was inserted from the right external carotid artery until the starting portion of the common carotid artery. The balloon was expanded by saline to an extent causing a light resistance, then the catheter was pulled out in that state up to the carotid artery to give trauma to the intima. This procedure was performed once, then the catheter was withdrawn and the external carotid artery was ligated. After 10 days, the chest was opened under anesthesia by pentobarbitol and the right common carotid artery was removed and immobilized by a neutral formalin solution. The immobilized carotid artery was dyed by Elastica van Gieson dye, then the areas of the media and intima were measured by an image resolution device (LUZEX2D).
as §1, with “of 32 μg/rabbit/hr” for “of 3.2 μg/rat/hr”, “the rabbit” for “the rat”, “until 10” for “until 11”, “in inhibiting” for “in suppressing”
Intima thickening suppression rate (%)=(1-T/C)×100

rat platelet = experiment: Rat platelet aggregation inhibiting activity; type: cell-based; conditions: rat platelet rich plasma; adenosine 2-phosphate induced; 37° C., one minute
Experimental: (§2) Wistar rats (males, approximately 400 g) were made to fast for one day, the entire blood was removed from the chest artery under anesthesia by ether, then a 1/10 volume of 3.8% aqueous solution of sodium citrate was added and immediately mixed in. The solution was centrifuged at 1000 rpm for 10 minutes, then the upper layer was used as the platelet rich plasma. The lower layer was centrifuged at 3000 rpm for 10 minutes and the upper layer of that was used as the platelet poor plasma. The platelet rich plasma was diluted by the platelet poor plasma to give a number of platelets of 3.5×10^8 /mm^3. This was used for the measurement. Note that the measurement of the platelets was performed using an automatic blood cell counter MEK-4500 (Nihon Koden). The measurement of the platelet aggregation was performed by measuring the turbidity using an NBS HEMA TRACER 801 (M.C. Medical). 90 μl of the platelet solution was inserted in a cuvette, then 5 μl each of the test compounds was added to give the target final concentration. The result was heated for one minute at 37° C., then 5 μl of a 100 μM aqueous solution of adenosine 2-phosphate (M.C. Medical) was added to induce platelet aggregation. The aggregation inhibiting activity was found from the following formula.
(§3) Aggregation inhibiting rate (%)={1-(maximum change of turbidity at time of
(§4) addition of drug)/(maximum change of turbidity at time of non-addition of
(§5) Further, the concentration of the compound giving 50% inhibition was used as the IC50.

human platelet = experiment: Human platelet aggregation inhibiting activity; type: cell-based; conditions: 5 min, human plasma, adenosine 2-phosphate induced, 5 minutes at 37° C.
Experimental: as §2, §3, §4, §5
50 ml portions of venous blood supplied from healthy human volunteers were used to prepare the platelet rich plasma and the platelet poor plasma in the same way as above. The measurement of the platelet aggregation was performed in the same way as above. However, unlike with the measurement of the rat platelet aggregation inhibiting activity, the test compound was added to the platelet poor plasma in advance and warmed for 5 minutes at 37° C., then the platelet rich plasma was added to give a number of platelets of 3.5×10^8 /mm^3. At the same time, 5 μl of 100 μM an aqueous solution of adenosine 2-phosphate (M.C. Medical) was added to induce platelet aggregation. The aggregation inhibiting activity was calculated in the same way as mentioned above.

[2] = 32 μg/rabbit/hr s.c. miniosmotic pump, day 10, average ± standard error

Compound: CCCCC(C)CC(O)/C=C/[C@@H]1C(SCCCCCC(=O)OC)=C(OC(=O)CCC)C[C@H]1O (stereo partly shown)
- IC50 [1]: 1 nM

Compound: CCCC[C@@H](C)C[C@H](O)/C=C/[C@@H]1C(SCCCCCC(=O)OC)=C(OC(=O)CCC)C[C@H]1O [Example 2, methyl(11R,12S,13E,15S,17R)-9-butyryloxy-11,15-dihydroxy-17,20-dimethyl-7-thiaprosta-8,13-dienoate]
- thickening of the neointima of the carotid artery (in words) (Rat Carotid Artery): suppresses the thickening of the neointima of the carotid artery
- Intima (area) (Rat Carotid Artery): 0.155 mm^2
- Media (area) (Rat Carotid Artery): 0.197 mm^2
- Intima/Media (Rat Carotid Artery): 0.758
- Suppression rate (intima thickening) (Rat Carotid Artery): 45.8%
- Intima (area) (Rabbit Carotid Artery; 32 μg/rabbit/hr s.c. miniosmotic pump, 3 days before to 10 days after surgery, day 10, average ± standard error): 0.055 mm^2
- Intima/Media (Rabbit Carotid Artery; [2]): 0.152
- Media (area) (Rabbit Carotid Artery; [2]): 0.367 mm^2
- Suppression rate (intima thickening) (Rabbit Carotid Artery; (1-T/C)×100 of Intima/Media, 32 μg/rabbit/hr s.c.): 29.9%

Compound: CCCC(=O)OC1=C(SCCCCCC(=O)OC)[C@@H](/C=C/[C@@H](O)C2CCCCC2)[C@H](O)C1 [Example 17, methyl(11R,12S,13E,15S)-9-butyryloxy-11,15-dihydroxy-15-cyclohexyl-16,17,18,19,20-pentanor-7-thiaprosta-8,13-dienoate]
- thickening of the neointima of the carotid artery (in words) (Rat Carotid Artery): suppresses the thickening of the neointima of the carotid artery
- Intima (area) (Rat Carotid Artery): 0.167 mm^2
- Media (area) (Rat Carotid Artery): 0.211 mm^2
- Intima/Media (Rat Carotid Artery): 0.784
- Suppression rate (intima thickening) (Rat Carotid Artery): 37.5%

Compound: CCCCC[C@H](O)/C=C/[C@@H]1C(SCCCCCC(=O)O)=C(OC(=O)CCC)C[C@H]1O [drawing 181]
- IC50 (rat platelet): 300 nM

Compound: CCCC(=O)OC1=C(SCCCCCC(=O)OC)[C@@H](/C=C/[C@@H](O)C2CCCCC2)[C@H](O)C1 [drawing 182]
- IC50 (human platelet): 120 nM

Continued, values first:

- IC50 (human platelet): 58 nM
Compound: CCCCC(C)C[C@H](O)/C=C/[C@@H]1C(SCCCCCC(=O)OC)=C(OC(=O)CCC)C[C@H]1O (stereo partly shown) [drawing 183]

- IC50 (human platelet): 50 nM
Compound: CCCC(=O)OC1=C(SCCCCCC(=O)OC)[C@@H](/C=C/C(O)Cc2ccccc2)[C@H](O)C1 (stereo partly shown) [drawing 184]

- IC50 (human platelet): 49 nM
Compound: CCCC(=O)OC1=C(SCCCCCC(=O)OC)[C@@H](/C=C/C(O)[C@H](C)c2ccccc2)[C@H](O)C1 (stereo partly shown) [drawing 185]

- IC50 (human platelet): 105 nM
Compound: CCCC(=O)OC1=C(SCCCCCC(=O)OC)[C@@H](/C=C/C(O)C(C)c2ccccc2)[C@H](O)C1 (stereo partly shown) [drawing 186]

- IC50 (human platelet): 59 nM
Compound: CCCCC(C)C[C@H](O)/C=C/[C@@H]1C(SCCCOCC(=O)OC)=C(OC(=O)CCC)C[C@H]1O (stereo partly shown) [drawing 187]
